Key:
Assay in all cases: relative viability (nuclei count vs DMSO), 5 days (fraction); higher = more cells survive
A-427 = test system: A-427
Summary of the method: (§1)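 Lung cancer cell lines were seeded in 1536-well plates and dosed by pin tool the next day, with either a single drug or a fixed anchor-drug dose combined with five library-drug doses (not always all listed) spaced in √10 steps. Five days later, one step fixed the cells and stained their nuclei (final 0.05% Triton X-100, 1% formaldehyde, 1 ug/ml Hoechst), and nuclei were counted on 4× images. Relative viability is the nuclei count in treated wells divided by the count in vehicle wells, and each value is the median of duplicate plates.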

EKVX = test system: EKVX
Summary of the method: as §1

NCI-H520 = test system: NCI-H520
Summary of the method: as §1

NCI-H1563 = test system: NCI-H1563
Summary of the method: as §1

LOU-NH91 = test system: LOU-NH91
Summary of the method: as §1

NCI-H1666 = test system: NCI-H1666
Summary of the method: as §1

NCI-H441 = test system: NCI-H441
Summary of the method: as §1

NCI-H1755 = test system: NCI-H1755
Summary of the method: as §1

NCI-H1734 = test system: NCI-H1734
Summary of the method: as §1

ChaGo-K-1 = test system: ChaGo-K-1
Summary of the method: as §1

LK-2 = test system: LK-2
Summary of the method: as §1

Nc1ccn([C@@H]2O[C@H](CO)[C@@H](O)[C@@H]2O)c(=O)n1 [Cytarabine] + CS(=O)(=O)N1CCN(Cc2cc3nc(-c4cccc5[nH]ncc45)nc(N4CCOCC4)c3s2)CC1 [Pictilisib] (partner 1 µM)
relative viability (A-427; first compound 0.1581 µM): 0.178 | relative viability (A-427; first compound 0.5 µM): 0.147 | relative viability (EKVX; first compound 0.005 µM): 0.486 | relative viability (EKVX; first compound 0.01581 µM): 0.362 | relative viability (EKVX; first compound 0.05 µM): 0.406 | relative viability (EKVX; first compound 0.1581 µM): 0.2 | relative viability (EKVX; first compound 0.5 µM): 0.163 | relative viability (NCI-H520; first compound 0.005 µM): 0.228 | relative viability (NCI-H520; first compound 0.01581 µM): 0.276 | relative viability (NCI-H520; first compound 0.05 µM): 0.288 | relative viability (NCI-H520; first compound 0.1581 µM): 0.27 | relative viability (NCI-H520; first compound 0.5 µM): 0.309 | relative viability (NCI-H1563; first compound 0.005 µM): 0.595 | relative viability (NCI-H1563; first compound 0.01581 µM): 0.649 | relative viability (NCI-H1563; first compound 0.05 µM): 0.657 | relative viability (NCI-H1563; first compound 0.1581 µM): 0.589 | relative viability (NCI-H1563; first compound 0.5 µM): 0.6 | relative viability (LOU-NH91; first compound 0.005 µM): 0.525 | relative viability (LOU-NH91; first compound 0.01581 µM): 0.56 | relative viability (LOU-NH91; first compound 0.05 µM): 0.489 | relative viability (LOU-NH91; first compound 0.1581 µM): 0.385 | relative viability (LOU-NH91; first compound 0.5 µM): 0.369 | relative viability (NCI-H1666; first compound 0.005 µM): 0.498 | relative viability (NCI-H1666; first compound 0.01581 µM): 0.345 | relative viability (NCI-H1666; first compound 0.05 µM): 0.381 | relative viability (NCI-H1666; first compound 0.1581 µM): 0.229 | relative viability (NCI-H1666; first compound 0.5 µM): 0.205 | relative viability (NCI-H441; first compound 0.005 µM): 0.481 | relative viability (NCI-H441; first compound 0.01581 µM): 0.443 | relative viability (NCI-H441; first compound 0.05 µM): 0.411 | relative viability (NCI-H441; first compound 0.1581 µM): 0.205 | relative viability (NCI-H441; first compound 0.5 µM): 0.223 | relative viability (NCI-H1755; first compound 0.005 µM): 0.378 | relative viability (NCI-H1755; first compound 0.01581 µM): 0.417 | relative viability (NCI-H1755; first compound 0.05 µM): 0.359 | relative viability (NCI-H1755; first compound 0.1581 µM): 0.223 | relative viability (NCI-H1755; first compound 0.5 µM): 0.191 | relative viability (NCI-H1734; first compound 0.005 µM): 0.365 | relative viability (NCI-H1734; first compound 0.01581 µM): 0.217 | relative viability (NCI-H1734; first compound 0.05 µM): 0.213 | relative viability (NCI-H1734; first compound 0.1581 µM): 0.147 | relative viability (NCI-H1734; first compound 0.5 µM): 0.118 | relative viability (ChaGo-K-1; first compound 0.005 µM): 0.583 | relative viability (ChaGo-K-1; first compound 0.01581 µM): 0.459 | relative viability (ChaGo-K-1; first compound 0.05 µM): 0.284 | relative viability (ChaGo-K-1; first compound 0.1581 µM): 0.365 | relative viability (ChaGo-K-1; first compound 0.5 µM): 0.401 | relative viability (LK-2; first compound 0.005 µM): 0.531 | relative viability (LK-2; first compound 0.01581 µM): 0.476 | relative viability (LK-2; first compound 0.05 µM): 0.426 | relative viability (LK-2; first compound 0.1581 µM): 0.23 | relative viability (LK-2; first compound 0.5 µM): 0.235

Reference: the supplement of paper PMC10307832
